According to article PMC12592420, “A mismatch in enzyme-redox partnerships underlies divergent cytochrome P450 activities between human hepatocytes and microsomes” (Communications Biology, 2025):
Several values for one entry are separate records, joined by “and”; a condition that tells them apart may be missing. Equal entries are not always repeated.

Key:
[1] = CLint in NADPH-supplemented human liver microsomes; details: human
Protocol: (§1) Calculation and scaling of CLint,u was done using the equation below and 45 mg of microsomal protein per gram of liver. HLMCLint,u=ln2/x1/t1/2(min)xmLincubation/mgmicrosomalproteinx45mgmicrosomalprotein/gliverx21gliver/kg/Fuinc

[2] = CLint in NADH-supplemented human liver microsomes; details: human, pH 7.4
Protocol: as §1

in vitro = details: human, hepatocytes
[3] = Free fraction in HLM incubation, equilibrium dialysis; type: in vitro ADME, human
[4] = Free fraction in rat hepatocytes as surrogate for HH, equilibrium dialysis; type: in vitro ADME; details: rat hepatocytes (surrogate for human hepatocytes); printed as HH; rat hepatocytes used as surrogate
rat hepatocytes = assay: as above; type: in vitro ADME; details: fraction unbound, measured or estimated by in silico models of Fuinc
recombinant human CYP1A2 = biological target: T1, recombinant human CYP1A2 (Homo sapiens, UniProt P05177); assay: Recombinant CYP panel, savolitinib CLint; type: in vitro ADME
T1 sequence (P05177 1-516): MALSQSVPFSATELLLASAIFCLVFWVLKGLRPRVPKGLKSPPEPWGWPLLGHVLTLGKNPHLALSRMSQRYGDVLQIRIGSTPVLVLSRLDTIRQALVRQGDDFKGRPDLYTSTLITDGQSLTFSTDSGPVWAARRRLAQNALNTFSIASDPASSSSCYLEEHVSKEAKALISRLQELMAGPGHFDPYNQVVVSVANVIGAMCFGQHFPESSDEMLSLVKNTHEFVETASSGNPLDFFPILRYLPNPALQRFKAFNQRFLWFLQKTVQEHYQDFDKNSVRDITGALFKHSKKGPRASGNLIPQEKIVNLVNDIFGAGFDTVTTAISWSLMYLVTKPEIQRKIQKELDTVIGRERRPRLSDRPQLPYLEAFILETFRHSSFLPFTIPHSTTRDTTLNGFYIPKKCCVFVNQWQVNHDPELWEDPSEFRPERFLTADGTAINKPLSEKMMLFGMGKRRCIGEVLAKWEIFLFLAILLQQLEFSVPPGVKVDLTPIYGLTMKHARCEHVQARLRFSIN
Protocol: (§2) […]
(§3) The clearance of savolitinib was
(§4) The average intrinsic clearance was
(§5) concentrations (final 0.1 µM).

recombinant human CYP2A6 = biological target: T2, recombinant human CYP2A6 (Homo sapiens, UniProt P11509); assay: Recombinant CYP panel, savolitinib CLint; type: in vitro ADME
T2 sequence (P11509 1-494): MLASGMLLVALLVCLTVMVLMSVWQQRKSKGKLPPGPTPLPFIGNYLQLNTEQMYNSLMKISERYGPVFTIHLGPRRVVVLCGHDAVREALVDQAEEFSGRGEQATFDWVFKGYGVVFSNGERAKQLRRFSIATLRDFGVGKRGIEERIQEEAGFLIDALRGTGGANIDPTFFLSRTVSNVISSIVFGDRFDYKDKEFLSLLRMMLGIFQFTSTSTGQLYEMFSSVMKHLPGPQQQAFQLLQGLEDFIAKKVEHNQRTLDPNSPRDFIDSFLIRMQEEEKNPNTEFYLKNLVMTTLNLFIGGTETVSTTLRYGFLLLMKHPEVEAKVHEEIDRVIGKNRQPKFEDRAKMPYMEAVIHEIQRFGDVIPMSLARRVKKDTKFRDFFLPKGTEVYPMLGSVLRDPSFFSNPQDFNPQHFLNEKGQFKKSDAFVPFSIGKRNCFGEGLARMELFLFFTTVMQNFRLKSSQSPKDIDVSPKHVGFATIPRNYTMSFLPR
Protocol: as §2, §3, §4, §5

[5] = biological target: recombinant human CYP2C19 (Homo sapiens, UniProt P33261); assay: Recombinant CYP panel, savolitinib CLint; type: in vitro ADME; details: CYP2C19, inter-system extrapolation factors
Chain of recombinant human CYP2C19 (P33261 whole entry): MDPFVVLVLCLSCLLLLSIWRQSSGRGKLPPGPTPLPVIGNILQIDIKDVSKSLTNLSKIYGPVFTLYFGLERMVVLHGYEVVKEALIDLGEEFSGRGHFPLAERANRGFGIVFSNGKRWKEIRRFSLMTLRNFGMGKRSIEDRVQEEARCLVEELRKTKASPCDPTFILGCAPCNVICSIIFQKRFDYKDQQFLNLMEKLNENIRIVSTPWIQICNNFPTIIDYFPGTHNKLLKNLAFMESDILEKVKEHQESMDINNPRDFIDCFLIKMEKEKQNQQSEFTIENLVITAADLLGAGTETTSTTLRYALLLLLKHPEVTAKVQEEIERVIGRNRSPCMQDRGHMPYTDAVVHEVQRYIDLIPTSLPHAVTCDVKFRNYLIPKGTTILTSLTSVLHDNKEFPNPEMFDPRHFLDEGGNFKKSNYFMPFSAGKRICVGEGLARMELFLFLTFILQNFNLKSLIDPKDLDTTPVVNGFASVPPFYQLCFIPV
Protocol: as §2, §3, §4, §5

recombinant human CYP2D6 = recombinant human CYP2D6 (Homo sapiens, UniProt P10635); assay: Recombinant CYP panel, savolitinib CLint; type: in vitro ADME
Chain of recombinant human CYP2D6 (P10635 whole entry): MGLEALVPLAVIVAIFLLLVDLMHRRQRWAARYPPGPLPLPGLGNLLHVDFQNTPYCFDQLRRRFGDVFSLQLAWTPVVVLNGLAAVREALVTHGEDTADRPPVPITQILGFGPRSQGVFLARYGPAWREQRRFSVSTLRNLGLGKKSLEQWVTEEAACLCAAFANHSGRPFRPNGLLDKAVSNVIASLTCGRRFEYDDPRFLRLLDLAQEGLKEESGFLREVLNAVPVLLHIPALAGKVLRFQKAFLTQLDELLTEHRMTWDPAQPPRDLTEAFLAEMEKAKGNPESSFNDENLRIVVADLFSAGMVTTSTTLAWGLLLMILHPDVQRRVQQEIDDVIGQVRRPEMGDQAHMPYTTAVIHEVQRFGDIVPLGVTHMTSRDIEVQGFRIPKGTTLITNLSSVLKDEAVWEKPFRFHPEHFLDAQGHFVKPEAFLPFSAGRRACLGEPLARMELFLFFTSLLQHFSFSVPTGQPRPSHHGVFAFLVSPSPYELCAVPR
Protocol: as §2, §3, §4, §5

recombinant human CYP3A4 = recombinant human CYP3A4 (Homo sapiens, UniProt P08684); assay: Recombinant CYP panel, savolitinib CLint; type: in vitro ADME
Chain of recombinant human CYP3A4 (P08684 whole entry): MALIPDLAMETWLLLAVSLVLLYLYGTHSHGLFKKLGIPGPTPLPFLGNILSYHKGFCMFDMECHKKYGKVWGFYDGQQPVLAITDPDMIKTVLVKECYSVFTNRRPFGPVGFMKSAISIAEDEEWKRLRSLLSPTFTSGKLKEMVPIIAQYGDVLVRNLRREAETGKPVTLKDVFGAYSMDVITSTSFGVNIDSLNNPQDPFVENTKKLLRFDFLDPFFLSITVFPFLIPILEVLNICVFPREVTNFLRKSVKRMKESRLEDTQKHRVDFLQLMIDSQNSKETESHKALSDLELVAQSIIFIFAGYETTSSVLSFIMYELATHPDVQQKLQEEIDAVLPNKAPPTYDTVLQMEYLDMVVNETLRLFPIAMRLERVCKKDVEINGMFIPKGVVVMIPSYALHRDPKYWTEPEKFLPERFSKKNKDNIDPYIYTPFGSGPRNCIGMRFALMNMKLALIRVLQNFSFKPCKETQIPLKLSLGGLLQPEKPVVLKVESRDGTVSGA
Protocol: as §2, §3, §4, §5

recombinant human CYP3A5 = recombinant human CYP3A5 (Homo sapiens, UniProt P20815); assay: Recombinant CYP panel, savolitinib CLint; type: in vitro ADME
Chain of recombinant human CYP3A5 (P20815 whole entry): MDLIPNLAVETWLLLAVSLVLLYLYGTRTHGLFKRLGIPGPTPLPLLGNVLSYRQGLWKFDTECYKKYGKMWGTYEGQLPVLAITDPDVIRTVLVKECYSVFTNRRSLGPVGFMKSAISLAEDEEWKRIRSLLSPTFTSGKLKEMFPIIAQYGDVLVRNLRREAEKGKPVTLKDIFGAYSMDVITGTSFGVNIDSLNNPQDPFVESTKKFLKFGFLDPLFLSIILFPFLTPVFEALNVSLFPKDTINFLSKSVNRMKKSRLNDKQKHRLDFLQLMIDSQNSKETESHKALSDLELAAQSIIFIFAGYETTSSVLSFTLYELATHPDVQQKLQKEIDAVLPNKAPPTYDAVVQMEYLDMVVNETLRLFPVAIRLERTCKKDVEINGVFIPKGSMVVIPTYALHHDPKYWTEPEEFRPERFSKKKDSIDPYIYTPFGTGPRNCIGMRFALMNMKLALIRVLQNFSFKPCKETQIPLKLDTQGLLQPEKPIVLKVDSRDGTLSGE
Protocol: as §2, §3, §4, §5

recombinant CYP3A4-POR = biological target: T3, recombinant CYP3A4-POR (Homo sapiens, UniProt P08684); assay: Savolitinib incubation with recombinant CYP3A4-POR Supersomes; type: in vitro ADME; details: CYP3A4-POR 100 pmol/mL, 1 µM, 1 h (Fig. 2b)
T3 construct: purchased 456202
T3 sequence (P08684 whole entry): as the sequence (P08684 whole entry) above
Protocol: For detailed comparisons between recombinant CYP1A2 and CYP3A4 (Fig. 2B, C), Supersomes were used (CYP1A2, catalogue number 456203, CYP3A4, catalogue number 456202). […] The concentration of savolitinib metabolites M2 and M4 formed were determined from standard curves obtained by spiking the appropriate concentrations of M2 and M4 into recombinant enzymes (in the absence of NADPH) and processing in the same way as the samples.

CYP1A2-Cytb5R = biological target: T4, CYP1A2-Cytb5R (Homo sapiens, UniProt P05177); assay: Turnover by non-canonical recombinant CYP1A2-Cytb5R; type: in vitro ADME; details: noncanonical CYP1A2-Cytb5R
T4 construct: purchased BioIVT (custom synthesis) CE00001 (CYP1A2), batch CPD034-1A2-30; host or cells: bactosomes
T4 sequence (P05177 1-516): T1 sequence (P05177 1-516)
Excerpt: As commercial recombinant human CYPs co-express the individual CYP and reductase with an option to include cytochrome b5. A custom synthesis co-expressing CYP3A4 or CYP1A2 and Cytb5R plus cytochrome b5 was, therefore, ordered from BioIVT and the bactosomes were compared with canonical CYP-POR enzymes plus cytochrome b5.

[6] = Free savolitinib in incubation with 150 mg/mL bovine serum albumin; type: in vitro ADME; details: BSA final 150 mg/mL
[7] = healthy volunteers; cited from earlier work
[8] = cited from earlier work
[9] = LogD pH 7.4, octanol/phosphate buffer; details: octanol/phosphate buffer, pH 7.4
[10] = Intrinsic permeability in Caco-2 cells with efflux inhibited; details: human, Caco-2

For `C[C@@H](c1ccc2nccn2c1)n1nnc2ncc(-c3cnn(C)c3)nc21` [Savolitinib], the microsomal CLint at 1 µM ([1]; human liver microsomes + NADPH, pH 7.4) was 9.8 µL/min/mg, the CLint scaled at 1 µM ([1]; human liver microsomes, pH 7.4, NADPH_HLM_scaled_CLint,u, Fig. 4a,d) was 9.9 mL/min/kg and the microsomal CLint at 1 µM ([2]; human liver microsomes + NADH) was 1.6 µL/min/mg. The CLint scaled at 1 µM ([2]; human liver microsomes) was 1.62 mL/min/kg, the hepatocyte CLint at 1 µM (in vitro; both) was 1 µL/min/1e6 cells and the CLint scaled at 1 µM (in vitro; HH_scaled_CLint,u) was 2.98 mL/min/kg. The fu_HLM ([3]; fraction unbound, measured or estimated by in silico models of Fuinc) was 0.935, the fraction unbound at 4 h, 1 µM ([3]; human, human liver microsomes, pH 7.4) was 0.935 and the fraction unbound at 4 h, 1 µM [4] was 0.847. For the same compound, the fu_ratHH (rat hepatocytes) was 0.847, the “% contribution” value (recombinant human CYP1A2; CYP1A2, inter-system extrapolation factors) was 1.6% and the CLint (recombinant human CYP1A2; CYP1A2, only two experiments measurable) was 0.0386 µL/min/pmol CYP. For the same compound, the “% contribution” value (recombinant human CYP2A6; CYP2A6, inter-system extrapolation factors) was 0.2%, the CLint (recombinant human CYP2A6; CYP2A6, only one experiment measurable) was 0.0148 µL/min/pmol CYP and the “% contribution” value [5] was 1.9%. The CLint (recombinant human CYP2D6; CYP2D6, average of three) was 0.309 ± 0.0010 µL/min/pmol CYP, the “% contribution” value (recombinant human CYP2D6; CYP2D6, inter-system extrapolation factors) was 1.8% and the CLint (recombinant human CYP3A4; CYP3A4, average of three) was 0.489 ± 0.0278 µL/min/pmol CYP. The “% contribution” value (recombinant human CYP3A4; CYP3A4, inter-system extrapolation factors) was 83%, the “% contribution” value (recombinant human CYP3A5; CYP3A5, inter-system extrapolation factors) was 12% and the CLint (recombinant human CYP3A5; CYP3A5, only two experiments measurable) was 0.0939 µL/min/pmol CYP. For the same compound, the Percentage savolitinib remaining (recombinant CYP3A4-POR) was 1.366% and 5.612% and 4.281%, the “turnover (metabolite formation or disappearance of parent)” value (CYP1A2-Cytb5R) was “no detectable turnover” and the free savolitinib [6] was 17%. The “oxidation by aldehyde oxidase, share of the dose” value [7] was 19 % of the dose, the “oxidation/hydrolysis on the imidazopyridine moiety, share of the dose” value [7] was 16 % of the dose and the “free in normal plasma” value [8] was 29%. The logD [9] was 1.81 and the Papp at 2 h, 10 µM [10] was 53.7 ×10⁻⁶ cm/s.
